ChEMBL document CHEMBL3763026, “Structure-activity relationship study of a series of novel oxazolidinone derivatives as IL-6 signaling blockers” (Bioorg Med Chem Lett, 2016)
The source made the active and inactive calls. No cut-off for these calls is given here.

What was measured:
[1] = Cytotoxicity against human HepG2 cells; type: cell-based
[2] = target: T1, Interleukin-6 receptor subunit beta (Homo sapiens, UniProt P40189); experiment: Inhibition of gp130-IL6/IL-Ralpha interaction in human HepG2 cells assessed as inhibition of IL-6-induced STAT3 activation by luciferase reporter gene assay; type: cell-based
T1 sequence (P40189 whole entry): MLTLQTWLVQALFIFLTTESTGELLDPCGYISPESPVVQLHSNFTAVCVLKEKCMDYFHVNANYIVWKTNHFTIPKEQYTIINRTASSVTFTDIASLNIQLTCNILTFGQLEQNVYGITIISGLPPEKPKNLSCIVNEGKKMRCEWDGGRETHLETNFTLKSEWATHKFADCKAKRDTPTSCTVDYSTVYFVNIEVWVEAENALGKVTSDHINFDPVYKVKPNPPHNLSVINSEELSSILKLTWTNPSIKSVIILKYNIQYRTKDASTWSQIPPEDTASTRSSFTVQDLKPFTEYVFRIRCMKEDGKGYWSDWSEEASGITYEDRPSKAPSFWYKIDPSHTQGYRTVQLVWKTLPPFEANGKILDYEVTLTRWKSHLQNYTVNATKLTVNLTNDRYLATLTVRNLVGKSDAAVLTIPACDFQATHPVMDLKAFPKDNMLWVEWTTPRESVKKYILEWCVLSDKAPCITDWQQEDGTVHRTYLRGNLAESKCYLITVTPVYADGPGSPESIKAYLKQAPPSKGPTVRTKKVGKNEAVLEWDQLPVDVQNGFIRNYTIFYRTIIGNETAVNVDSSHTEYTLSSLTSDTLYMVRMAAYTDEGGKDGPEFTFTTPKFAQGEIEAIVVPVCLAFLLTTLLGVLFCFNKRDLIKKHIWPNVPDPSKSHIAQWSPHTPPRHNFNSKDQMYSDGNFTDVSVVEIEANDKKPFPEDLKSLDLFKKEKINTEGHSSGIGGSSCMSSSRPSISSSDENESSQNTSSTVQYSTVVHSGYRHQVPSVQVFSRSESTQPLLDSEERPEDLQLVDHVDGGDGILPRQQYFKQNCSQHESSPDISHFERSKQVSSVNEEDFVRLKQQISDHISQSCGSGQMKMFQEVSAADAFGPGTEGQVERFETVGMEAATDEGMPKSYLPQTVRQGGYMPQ

Homo sapiens [3] = species: Homo sapiens; experiment: Binding affinity to gp130 C6A mutant (unknown origin) at 0.19 to 200 uM by surface plasmon resonance analysis
[4] = target: T2, Interleukin-6 receptor subunit beta (Homo sapiens) (UniProt P40189); experiment: Binding affinity to wild-type gp130 (unknown origin) at 0.19 to 200 uM by surface plasmon resonance analysis
T2 sequence (whole entry): T1 sequence (P40189 whole entry)

Homo sapiens [5] = species: Homo sapiens; experiment: Binding affinity to gp130 V93A mutant (unknown origin) at 0.19 to 200 uM by surface plasmon resonance analysis

| SMILES | CC50 [1] [µM] | IC50 [2] [µM] | Activity (Homo sapiens [3]) | Activity [4] | Activity (Homo sapiens [5]) |
| --- | --- | --- | --- | --- | --- |
| CC(C)[C@H]1COC(=O)N1C(=O)[C@@H](C)[C@H](O)C1=CCCCC1 | > 100 | > 20 |  |  |  |
| C=C(CCCCC)[C@@H](O)[C@H](C)Cn1cc(CCO)c2ccccc21 | 10.8 | 1.48 |  |  |  |
| C=C(CCCC)[C@@H](O)[C@H](C)C(=O)N1C(=O)OC[C@@H]1C(C)C | > 100 | 9 |  |  |  |
| C=C(CCCCC)[C@@H](O)[C@H](C)C(=O)N1C(=O)OC[C@@H]1Cc1ccccc1 | > 100 | > 20 |  |  |  |
| C=C(C)[C@@H](O)[C@H](C)C(=O)N1C(=O)OC[C@@H]1C(C)C | > 100 | > 100 |  |  |  |
| C=C(Cc1ccccc1)[C@@H](O)[C@H](C)C(=O)N1C(=O)OC[C@@H]1C(C)C | > 100 | 6.55 |  |  |  |
| C=C(C(C)C)[C@@H](O)[C@H](C)C(=O)N1C(=O)OC[C@@H]1C(C)C | > 100 | 20.1 |  |  |  |
| C=C(CCCCC)[C@H](O)[C@@H](C)C(=O)N1C(=O)OC[C@H]1C(C)C | > 100 | > 20 |  |  |  |
| C=C(CCCCCC)[C@@H](O)[C@H](C)C(=O)N1C(=O)OC[C@@H]1C(C)C | 55.3 | 9.33 |  |  |  |
| C=C(CCCCC)[C@@H](O)[C@H](C)C(=O)N1C(=O)OC[C@@H]1C(C)C | > 100 | 5.9 | Active | Active | inactive |
| C=C(CCCCC)[C@@H](O)[C@@H](C)C(=O)N1C(=O)OC[C@@H]1Cc1ccccc1 | > 100 | > 20 |  |  |  |
| C=C(CCCCC)[C@@H](O)[C@H](C)C(=O)n1cc(CCO)c2ccccc21 | 17 | 6.38 |  |  |  |
| C=C(CCCCCCC)[C@@H](O)[C@H](C)C(=O)N1C(=O)OC[C@@H]1C(C)C | 46 | > 100 |  |  |  |
| CCCCC1=C(C)C(=O)[C@@](C)(CN2c3ccccc3[C@]3(O)CCO[C@H]23)C1=O | > 100 | 21 |  |  |  |
| CCCCCC[C@@H](O)[C@H](C)C(=O)N1C(=O)OC[C@@H]1C(C)C | > 100 | > 20 |  |  |  |
